The test system of this assay is hMSC-TERT. To be noted: 6 days after induction, hMSC-TERT.
Setting [1] is: 1 μM inhibitor in osteogenic inducing media.
[2] abbreviates: 10 μM inhibitor in osteogenic inducing media.

Like-named read-outs stand apart in the source and are kept apart here.

Data on 42 compounds can be found in patent publication US9273006B2, “Anabolic compounds for treating and preventing bone loss diseases” (SYDDANSK UNIVERSITET, priority 2012, dated 2016).

Regarding `CCCCCCCCCCCCCCCC(=O)OC(CC(=O)O)C[N+](C)(C)C.[Cl-]` (racemic) [Palmitoyl-DL-carnitine Cl], the “Relative ALP activity” value under setting [1] is listed as 0.9966 and the “Relative ALP activity” value under setting [2] amounted to 0.9612.

`Nc1ncc2[nH]cnc2n1` [2-Aminopurine]: the “Relative ALP activity” value by setting is: under setting [1], 1.017; under setting [2], 0.6855. In the case of `Nc1ncnc2c1c(I)cn2[C@@H]1O[C@H](CO)[C@@H](O)[C@H]1O` [5-Iodotubercidin], the “Relative ALP activity” value is reported as 1.035 under setting [1] and “Toxic” under setting [2]. In the case of `N#CC(C#N)=Cc1ccc([N+](=O)[O-])c(O)c1` [AG-126], the “Relative ALP activity” value is, setting by setting: under setting [1], 0.9053; under setting [2], 1.156. In the same order, the values of `N#CC(=Cc1ccc2[nH]ccc2c1)C(N)=C(C#N)C#N` [AG-370] are 1.057 and 0.7902.

For `N#C/C(=C/c1ccc(O)c(O)c1)C(=O)NCc1ccccc1` [AG-490], the “Relative ALP activity” value runs as follows: under setting [1], 0.9657; under setting [2], 0.3482. Taken in the same sequence, the figures for `N#C/C(=C\c1ccc(O)c(O)c1)C(=O)Nc1ccccc1` [AG-494] were 0.8788 and 0.33. Taken in the same sequence, the figures for `COc1cc(/C=C(\C#N)C(N)=O)cc(CSc2nc3ccccc3s2)c1O` [AG-825] were 0.8754 and 1.056. Consider `CC(C)(C)c1cc(/C=C(\C#N)C(N)=S)cc(C(C)(C)C)c1O` [AG-879], for which the “Relative ALP activity” value reads like this: under setting [1], 0.6801; under setting [2], 0.7467. Taken in the same sequence, the figures for `COc1cc2ncc(-c3ccccc3)nc2cc1OC` [AG-1296] were 0.7685 and 0.5376.

`O=c1cc(-c2ccc(O)cc2)oc2cc(O)cc(O)c12` [Apigenin]: the “Relative ALP activity” value was 0.9029 under setting [1] and 0.4027 under setting [2].

In the case of `Cc1ccc(S(=O)(=O)/C=C/C#N)cc1` [BAY 11-7082], the “Relative ALP activity” value reads like this: under setting [1], 0.9356; under setting [2], “Toxic”.

Take `O=C(O)c1ccc2nc(-c3ccccc3)c(-c3ccccc3)nc2c1` [BML-257]: the “Relative ALP activity” value by setting is: under setting [1], 0.8443; under setting [2], 0.7884. In the case of `CC(C)c1cnc(NC(=O)Cc2ccccc2)s1` [BML-259], the “Relative ALP activity” value turned out to be 1.001 under setting [1] and 0.7259 under setting [2]. Turning to `OC[C@H]1O[C@@H](n2cnc3cc(Cl)c(Cl)cc32)[C@H](O)[C@@H]1O` [DRB], the “Relative ALP activity” value is, setting by setting: under setting [1], 0.9718; under setting [2], 0.5043. In the same order, the values of `O=c1c(-c2ccc(O)cc2)coc2cc(O)ccc12` [Daidzein] are 1.14 and 1.025. Consider `COc1c(C=O)c(O)cc2c1C(=O)c1ccccc1C2=O` [Damnacanthal], for which the “Relative ALP activity” value is, setting by setting: under setting [1], 0.8711; under setting [2], 0.3273. In the same order, the values of `COC(=O)/C=C/c1cc(O)ccc1O` [Erbstatin analog] are 0.8892 and 0.7022. Taken in the same sequence, the figures for `CN(C)CCCn1cc(C2=C(c3c[nH]c4ccccc34)C(=O)NC2=O)c2ccccc21` [GF 109203X] were 0.3532 and “Toxic”.

On to `O=C1Nc2ccc(I)cc2/C1=C/c1cc(Br)c(O)c(Br)c1` [GW 5074], for which the “Relative ALP activity” value is reported as 0.7969 under setting [1] and 0.5773 under setting [2]. In the same order, the values of `O=c1c(-c2ccc(O)cc2)coc2cc(O)cc(O)c12` [Genistein] are 1.215 and 0.7692. As for `CC1CNCCN1S(=O)(=O)c1cccc2cnccc12` (centres unmarked) [H-7], the “Relative ALP activity” value by setting is: under setting [1], 1.087; under setting [2], 0.9015. On to `NCCNS(=O)(=O)c1cccc2cnccc12` [H-9], for which the “Relative ALP activity” value runs as follows: under setting [1], 0.9547; under setting [2], 0.9783.

With `O=S(=O)(NCCNC/C=C/c1ccc(Br)cc1)c1cccc2cnccc12` [H-89], the “Relative ALP activity” value is reported as 0.8924 under setting [1] and 0.3847 under setting [2]. In the case of `NC(N)=NCCNS(=O)(=O)c1cccc2cnccc12` [HA-1004], the “Relative ALP activity” value is listed as 0.9706 under setting [1] and 0.9424 under setting [2]. Taken in the same sequence, the figures for `O=S(=O)(c1cccc2cnccc12)N1CCCNCC1` [HA-1077] were 1.02 and 0.908.

On to `COCc1cc(O)c(O)c(O)c1-c1c(COC)cc(O)c(O)c1O` [HBDDE], for which the “Relative ALP activity” value amounted to 0.8861 under setting [1] and 0.7296 under setting [2]. Regarding `O=C(O)c1cc(NCc2cc(O)ccc2O)ccc1O` [HDBA], the “Relative ALP activity” value turned out to be 0.8708 under setting [1] and 0.9836 under setting [2]. In the case of `O=P(O)(O)C(O)c1ccc2ccccc2c1` (centres unmarked) [HNMPA], the “Relative ALP activity” value by setting is: under setting [1], 0.864; under setting [2], 0.8557. For `Cc1cc(O)c2c(=O)c3c(O)cc(O)c4c5c(O)cc(O)c6c(=O)c7c(O)cc(C)c8c1c2c(c34)c(c78)c65` [Hypericin], the “Relative ALP activity” value under setting [1] is 0.8534. In the case of `O=C1Nc2ccccc2/C1=C1/Nc2ccccc2C1=O` [Indirubin], the “Relative ALP activity” value by setting is: under setting [1], 0.3571; under setting [2], 0.18. With `CN([C@@H](Cc1ccc(OS(=O)(=O)c2cccc3cnccc23)cc1)C(=O)N1CCN(c2ccccc2)CC1)S(=O)(=O)c1cccc2cnccc12` [KN-62], the “Relative ALP activity” value reads like this: under setting [1], 0.956; under setting [2], 0.9222. In the same order, the values of `COc1ccc(S(=O)(=O)N(CCO)c2ccccc2CN(C)C/C=C/c2ccc(Cl)cc2)cc1` [KN-93] are 0.7347 and 0.6802. Consider `O=C1Cc2c([nH]c3ccc(Br)cc23)-c2ccccc2N1` [Kenpaullone], for which the “Relative ALP activity” value runs as follows: under setting [1], 0.5044; under setting [2], 0.2055.

For the compound `C/C(O)=C(\C#N)C(=O)Nc1cc(Br)ccc1Br` [LFM-A13], the “Relative ALP activity” value by setting is: under setting [1], 0.7381; under setting [2], 0.9154. In the same order, the values of `O=c1cc(N2CCOCC2)oc2c(-c3ccccc3)cccc12` [LY 294002] are 0.8628 and 0.439. `O=C(O)c1cc(N(Cc2ccccc2O)Cc2cc(O)ccc2O)ccc1O` [Lavendustin A]: the “Relative ALP activity” value runs as follows: under setting [1], 0.8641; under setting [2], 0.4935. Consider `O=S(=O)(c1cccc2c(I)cccc12)N1CCCNCC1` [ML-7], for which the “Relative ALP activity” value under setting [1] stood at 1.031 and the “Relative ALP activity” value under setting [2] came out at 0.9564. For the compound `O=S(=O)(c1cccc2c(Cl)cccc12)N1CCCNCC1` [ML-9], the “Relative ALP activity” value under setting [1] is recorded as 0.9822 and the “Relative ALP activity” value under setting [2] is reported as 0.6879.

For `CC(C)n1cnc2c(NCc3ccccc3)nc(NCCO)nc21` [N9-Isopropyl-olomoucine], the “Relative ALP activity” value reads like this: under setting [1], 1.128; under setting [2], 0.6666. Taken in the same sequence, the figures for `Cn1cnc2c(NCc3ccccc3)nc(NCCO)nc21` [Olomoucine] were 1.142 and 0.5408. Turning to `COc1cccc(-c2cc(=O)c3ccccc3o2)c1N` [PD-98059], the “Relative ALP activity” value amounted to 0.5617 under setting [1] and 0.6017 under setting [2].
